# Test results published in patent US9394547B2, “Method and apparatus for delivery of molecules to cells” (CITY UNIVERSITY OF HONG KONG, priority 2012, dated 2016).
# Counter-ions that a name gives are not always drawn.
# Assays:
# MC-3T3 cells = experiment: Flow cytometry of fluorescein intracellular delivery with diamond nanocone array; assay type: cell-based, Mouse; settings: fluorescein 1 mg/ml
# Experimental: Mouse MC3T3-E1 pre-osteoblasts, which can differentiate into osteoblasts, were used in the present study. The cells were cultured at 37° C. with 5% carbon dioxide (CO2) and 95% humidified air in Dulbecco's Modified Eagle Medium (DMEM) (Gibco) supplemented with 10% fetal bovine serum (FBS) (Gibco). The medium was renewed every 2-3 days and confluent cells were subcultured through trypsinization.
# Three groups of cells were studied. One group was untreated cells. Other two groups included the cells which were treated by smooth silicon substrate and diamond nanocone array. For treatment, a volume of […] MC-3T3 cell suspension was applied to the substrate with a speed of about 3 ms^−1 by a pipette (FIG. 16). After the application, the cell suspension was collected and pipetted to the substrate again with a similar speed. Such cell treatment procedure was repeated for 15 times. The same procedures were used in all experiments for enhanced intracellular delivery. Following cell treatment, cells were plated into 96-well microtiter plates. After 22 hours, morphology of each group of cells was observed by optical microscopy. After 24 hours, cell viability was determined by MTT assay.
# Subsequently, the enhanced intracellular delivery capability of the diamond nanocone array was firstly assessed by investigating the fluorescence intensity of fluorescein sodium salt stain in treated cells by quantitative analysis through flow cytometry. MC-3T3 cells were harvested at a density of 10^4 cells/ml. Fluorescien was added to cell growth medium at a concentration of 1 mg/ml. After the addition of fluorescein, a volume of 1 ml of this cell suspension was treated with the same method as that described above. Two experiments were arranged in investigating the intracellular delivery of fluorescein sodium salt. In one experiment, the negative control was to apply cells to a smooth silicon substrate without the nanocone array. In the other experiment, untreated cells were used as the control (i.e. neither nanocone array nor smooth Si substrate was used). After 15 min of staining, the suspensions of control and treated group cells were pelleted by centrifugation (Spectrafuge™ 16 M, Labnet) at 6000 rpm for 3 min, after which the supernatants were removed. The cell pellets were washed by 1 mL of phosphate buffered saline (PBS) and then resuspended throughly. The cell suspensions were centrifuged again at 6000 rpm for 3 min, and the cell pelletes were washed by PBS for 3 times in total. Finally, the cell suspensions were prepared with a concentration of 10^4 cells in PBS and then immediately analysed using a flow cytometer (Becton DICKINSON, FACSCalibur cytometer) by counting 1×10^4 cells per sample. […]
# A549 cells = experiment: Live-cell confocal imaging of luminescent iridium(III) complex delivery; assay type: cell-based
# Experimental: In this embodiment, suspension with the subjects was applied to the nanoneedle array at a speed of about 3.0 m/s. After treatment with the nanooneedles, the cells were grown on a sterile glass coverslip for 19 hours followed by PBS washing and then investigated by fluorescence confocal microscopy. Negligible cell death was found under microscopy in the experiments. FIG. 12a is a representative image showing the intracellular delivery of the iridium(III) polypyridine complex to A549 cells. […] In comparison, FIG. 12b is the image of the control group in which the cells were incubated with the complex for 19 hours but not treated with nanoneedles before incubation. FIGS. 12a and 12b were taken under the same microscope settings. […] (The arrows in the figures indicate the cells in which direct nucleic delivery of the luminescent complex is achieved with diamond needles treatment. The scale bars in FIGS. 12a), b), e) and f) indicate 25 μm).
# The fluorescence intensities in the cytoplasm of the two selected cells were normalized to be the same value and the fluorescence intensities in the nucleus of the two cells were compared. The representative results are shown in FIG. 12c for a nanoneedle-treated cell and FIG. 12d for a cell without treatment. […] For the nanoneedle treated group, unexpectedly, a number of cells in which the fluorescence signal was almost evenly distributed in the entire cells were found. For this reason, it was not apparent to locate their nuclei (indicated by the arrows in FIGS. 12e and 12f).
# A549 cells were maintained as exponentially growing cultures in a Dulbecco's modified Eagle's medium (DMEM) with 10% FBS and 1% penicillin/streptomycin at 37° C. The cells were trypsinized and suspended in DMEM medium. There are about 6×10^4 cells in one milliliter. Iridium(III) polypyridine complex was added to the cell medium at a concentration of 0.1 μM. […]
# A549 cell suspension in medium/DMSO (99:1, v/v) containing [Ir(ppy)2(bpy-Et)](PF6) (0.1 μM) was prepared. […] The emission was measured using a long-pass filter at 532 nm.
# NIH3T3 fibroblast cells = experiment: Cytosolic delivery into fibroblast cells by diamond nanoneedle array under centrifugation (live/dead calcein AM/EthD-1 staining); assay type: cell-based
# Text: This kit has been widely used to characterize cell viability and cytotoxicity. In the assays, with application of nanoneedle array to cells, the membrane-permeant calcein AM enters cells and is cleaved by esterases in live cells to yield cytoplasmic green fluorescence; while the membrane-impermeant ethidium homodimer-1 (EthD-1) labels nucleic acids of membrane-disrupted cells with red fluorescence. […] In comparison, dead cells were labeled with only red fluorescence (FIG. 5). FIG. 5a are representative images of fibroblast cells after successful cytosolic delivery of EthD-1; FIG. 5b is a chart showing quantification of delivery efficiency; and FIG. 5c is a chart showing quantification of cell viability after being treated with nanoneedles arrays; all at a scale bar of 100 um.
# In an embodiment, the penetration and subsequent disruption of cell membrane by nanoneedles was precisely controlled by centrifugation-induced supergravity to achieve reliable, highly efficient, diffusion based cytosolic delivery. In a specific embodiment, in order to optimize the force applied onto the cell membranes through nanoneedles, the whole setup (cell culture plus nanoneedle array) was maintained in supergravity by centrifugation at a series of speeds from 300 rpm (12.8 g, RCF) to 1000 rpm (142 g). […]
# [1] = test system: primary hippocampal neurons; experiment: Cytosolic delivery into primary hippocampal neurons by diamond nanoneedle array under centrifugation (live/dead staining); assay type: cell-based; settings: around 300 rpm (12.8 g)
# Experimental: Intracellular delivery into post-mitotic cells, such as neuron, has always been challenging. […] Compared with fibroblast cells, neurons are more vulnerable to membrane disruption induced by nanoneedle arrays. Generally, a relatively lower speed would be required to achieve similar delivery efficiency as in fibroblast cells (FIG. 6). […] Therefore, a centrifuging speed of 300-400 rpm was selected for following experiments with primary neurons. FIG. 6a are representative images of fibroblast cells after successful cytosolic delivery of EthD-1; FIG. 6b is a chart showing quantification of delivery efficiency; and FIG. 6c is a chart showing quantification of cell viability after being treated with nanoneedles arrays; all at a scale bar of 100 um.
# Hippocampal neuron cultures were prepared following the method previously described. Briefly, dissociated neurons were prepared from hippocampi dissected from E18 Sprague Dawley rats by enzymatic treatment with papain (Sigma) for 30 min at 37° C. followed by trituration with a 1 ml pipette tip. Before seeding neurons, all substrates were pre-coated with polylysine (Sigma, 100 μg ml^−1) and laminin (Invitrogen, 10 μg ml^−1). Neuron cells were treated with nanoneedle arrays at 6-7 days in vitro (DIV).
# Nanoneedle array was placed to float on culture medium with the needles facing toward cells. […]
molecule,measurement,setting,value
O=C1OC2(c3ccc(O)cc3Oc3cc(O)ccc32)c2ccccc21 [fluorescein sodium salt],"M3, percentage of cells with fluorescence intensity 1×10^2 to 1×10^3","MC-3T3 cells; FIG. 20, cells treated with the nanocone array",73.5%
same,"M2, percentage of cells with fluorescence intensity 1×10^1 to 1×10^2","MC-3T3 cells; FIG. 20, control cells applied to smooth Si substrate",63.1%
same,"M3, percentage of cells with fluorescence intensity 1×10^2 to 1×10^3","MC-3T3 cells; FIG. 21, cells treated with the nanocone array",62.4%
same,"M2, percentage of cells with fluorescence intensity 1×10^1 to 1×10^2","MC-3T3 cells; FIG. 21, untreated sample (no nanocone, no Si substrate)",70.0%
[Ir(ppy)2(bpy-Et)](PF6) [iridium(III) polypyridine complex],fluorescence signal,"A549 cells; A549 cells, 0.1 μM, 19-hour incubation, not treated with nanoneedles",extremely weak
same,intracellular localization,"A549 cells; A549 cells, 0.1 μM, nanoneedle treated, 19 hours",mainly localized in the perinuclear region
same,nuclear uptake,"A549 cells; by diffusion, without nanoneedles",negligible nuclear uptake
ethidium homodimer-1 [EthD-1],cytosolic delivery efficiency of EthD-1,NIH3T3 fibroblast cells; centrifugation 300 rpm,~5%
same,cytosolic delivery efficiency of EthD-1,NIH3T3 fibroblast cells; centrifugation 500 rpm or above,~80%
same,delivery efficiency of EthD-1,[1],about 80%
